What was measured:
C. Elegans = test: 8OH2′dG production (DNA damage rate) in C. Elegans culture; assay type: in vivo
Excerpt: 2. Relevant to the use of DNA damage rate measurements to cancer diagnosis I have observed that in C. Elegans culture there is a burst of 8OH2′dG production during the stage of rapid replication of the gonadal cells. In similar experiments I observed that a toxin (3 nitro propionic acid, 3NP) increased the rate of DNA damage during replication.
4. […] In rapid cell replication in C. Elegans, in 3NP insulted C.

[1] = Dialysis studies of 8OH2′dG in extracellular matrix, probes in brain and muscle; assay type: in vivo; settings: extracellular matrix vs free levels inside cellular material, brain and muscle of rat and mouse
Excerpt: (§1) 1. Dialysis studies of 8OH2′dG in extracellular matrix with probes placed in brain and muscle of rat and mouse to measure the rate of production and excretion compared with the free levels inside the cellular material confirm that excretion from the cells is rapid. Similarly, comparison of CSF, Plasma and urinary levels of ca 1:10:2000 in ca 100 ALS and control subjects confirm that the rate of clearance from the body is high.

[2] = Comparison of CSF, plasma, urine, saliva and sweat levels of 8OH2′dG; assay type: in vivo, human
Excerpt: as §1

[3] = Effect of simple antioxidants on levels of 8OH2′dG; assay type: in vivo
[4] = Urine 8OH2′dG levels in individuals exposed to chemicals; assay type: in vivo, human; settings: individuals exposed to the substance

Molecule: O=C(O)CC[N+](=O)[O-] [3NP, 3 nitro propionic acid]
- rate of damage after the toxin was removed (C. Elegans; after exposure): still maintained at a higher level
- rate of DNA damage during replication (C. Elegans; toxin exposure): increased

Molecule: Nc1nc2c(nc(O)n2[C@H]2C[C@H](O)[C@@H](CO)O2)c(=O)[nH]1 [8OH2′dG, 8 hydroxy 2′ deoxyguanosine]
- excretion from the cells [1]: rapid
- rate of clearance from the body ([2]; CSF, plasma and urinary levels ca 1:10:2000 in ca 100 ALS and control subjects): high
- mode of removal ([2]; saliva or sweat vs. urine levels, plasma of kidney dialysis patients): urinary excretion is the primary mode of removal

Molecule: O=C1O[C@H]([C@@H](O)CO)C(O)=C1O [Ascorbate]
- effect on the levels of 8OH2′dG [3]: no effect

Molecule: Nc1ccccc1 [aniline]
- Urine levels of 8OH2′dG [4]: significantly increased

Molecule: [As] [arsenic]
- Urine levels of 8OH2′dG [4]: significantly increased

Molecule: Cc1ccccc1N [o-toluidine]
- Urine levels of 8OH2′dG [4]: significantly increased

Molecule: Tocopherol
- effect on the levels of 8OH2′dG [3]: no effect
